Laboratory results taken from PubChem BioAssay AID2060494 (Molecular Pharmacology Branch, DTP, NCI, 2025).

Test system: 435261-313-R-J1-PDC complex spheroid viability
Experiment: Anticancer human tumor 435261-313-R-J1-PDC patient-derived colon adenocarcinoma cell line growth inhibition [GQUAD]
Settings: for IC50: curve of first compound; for viability, T/C: stronger effect = lower value
Outline: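 Tumor cells were grown as complex spheroids with HUVEC endothelial cells and mesenchymal stem cells as stroma. G-quadruplex stabilizers were combined with targeted agents over half-log dilutions from near the clinical Cmax, or from 10 microM.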

[1] = second compound 0.0316 µM, first compound 0.0316 µM
[2] = second compound 0.0316 µM, first compound 0.316 µM
[3] = second compound 0.1 µM, first compound 0.0316 µM
[4] = second compound 0.1 µM, first compound 0.316 µM
[5] = second compound 0.316 µM, first compound 0.0316 µM
[6] = second compound 0.316 µM, first compound 0.316 µM
[7] = second compound 1 µM, first compound 0.0316 µM
[8] = second compound 1 µM, first compound 0.316 µM
[9] = second compound 3.16 µM, first compound 0.0316 µM
[10] = second compound 3.16 µM, first compound 0.316 µM
[11] = second compound 10 µM, first compound 0.0316 µM
[12] = second compound 10 µM, first compound 0.316 µM
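Further: spheroids exposed to the agents for seven days before readout.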
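Wherever viability, T/C is given: percent of vehicle control viability with DMSO wells as 100%.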

Cc1[nH]c2ccccc2c1CCNCc1ccc(/C=C/C(=O)NO)cc1 + Cc1[nH]c2ccc(F)cc2c1-c1nc2c3cccnc3c3ncccc3c2[nH]1
IC50 (second compound 0.0316 µM): 97.9 nM
IC50 (second compound 0.1 µM): 105 nM
IC50 (second compound 0.316 µM): 77.9 nM
IC50 (second compound 1 µM): 106 nM
IC50 (second compound 3.16 µM): < 0.999 nM
IC50 (second compound 10 µM): < 0.999 nM
viability, T/C (second compound 0.0316 µM, first compound 0.000999 µM): 86%
viability, T/C (second compound 0.0316 µM, first compound 0.00316 µM): 70.3%
viability, T/C (second compound 0.0316 µM, first compound 0.00999 µM): 77.2%
viability, T/C [1]: 98.1%
viability, T/C (second compound 0.0316 µM, first compound 0.0999 µM): 49.4%
viability, T/C [2]: 4.41%
viability, T/C (second compound 0.1 µM, first compound 0.000999 µM): 91.7%
viability, T/C (second compound 0.1 µM, first compound 0.00316 µM): 65.4%
viability, T/C (second compound 0.1 µM, first compound 0.00999 µM): 96.8%
viability, T/C [3]: 66.1%
viability, T/C (second compound 0.1 µM, first compound 0.0999 µM): 53.1%
viability, T/C [4]: 11.9%
viability, T/C (second compound 0.316 µM, first compound 0.000999 µM): 64.1%
viability, T/C (second compound 0.316 µM, first compound 0.00316 µM): 81.8%
viability, T/C (second compound 0.316 µM, first compound 0.00999 µM): 61.8%
viability, T/C [5]: 68.1%
viability, T/C (second compound 0.316 µM, first compound 0.0999 µM): 45.2%
viability, T/C [6]: 9.8%
viability, T/C (second compound 1 µM, first compound 0.000999 µM): 46.7%
viability, T/C (second compound 1 µM, first compound 0.00316 µM): 71.7%
viability, T/C (second compound 1 µM, first compound 0.00999 µM): 49.9%
viability, T/C [7]: 58.6%
viability, T/C (second compound 1 µM, first compound 0.0999 µM): 52.1%
viability, T/C [8]: 7.21%
viability, T/C (second compound 3.16 µM, first compound 0.000999 µM): 41.2%
viability, T/C (second compound 3.16 µM, first compound 0.00316 µM): 39.5%
viability, T/C (second compound 3.16 µM, first compound 0.00999 µM): 24.2%
viability, T/C [9]: 33.8%
viability, T/C (second compound 3.16 µM, first compound 0.0999 µM): 26%
viability, T/C [10]: 0.48%
viability, T/C (second compound 10 µM, first compound 0.000999 µM): 29.5%
viability, T/C (second compound 10 µM, first compound 0.00316 µM): 28.2%
viability, T/C (second compound 10 µM, first compound 0.00999 µM): 28.1%
viability, T/C [11]: 33.3%
viability, T/C (second compound 10 µM, first compound 0.0999 µM): 27.8%
viability, T/C [12]: 0.79%

C#Cc1c(F)ccc2cc(O)cc(-c3ncc4c(N5CC6CCC(C5)N6)nc(OCC56CCCN5CC(F)C6)nc4c3F)c12 (centres undefined) + Cc1[nH]c2ccc(F)cc2c1-c1nc2c3cccnc3c3ncccc3c2[nH]1
IC50 (second compound 0.0316 µM): > 10000 nM
IC50 (second compound 0.1 µM): > 10000 nM
IC50 (second compound 0.316 µM): > 10000 nM
IC50 (second compound 1 µM): > 10000 nM
IC50 (second compound 3.16 µM): < 31.6 nM
IC50 (second compound 10 µM): < 31.6 nM
viability, T/C [1]: 94.8%
viability, T/C (second compound 0.0316 µM, first compound 0.1 µM): 106%
viability, T/C [2]: 88.9%
viability, T/C (second compound 0.0316 µM, first compound 1 µM): 104%
viability, T/C (second compound 0.0316 µM, first compound 3.16 µM): 65.6%
viability, T/C (second compound 0.0316 µM, first compound 10 µM): 58.9%
viability, T/C [3]: 107%
viability, T/C (second compound 0.1 µM, first compound 0.1 µM): 85.4%
viability, T/C [4]: 104%
viability, T/C (second compound 0.1 µM, first compound 1 µM): 62%
viability, T/C (second compound 0.1 µM, first compound 3.16 µM): 61.1%
viability, T/C (second compound 0.1 µM, first compound 10 µM): 57%
viability, T/C [5]: 64.5%
viability, T/C (second compound 0.316 µM, first compound 0.1 µM): 111%
viability, T/C [6]: 75.8%
viability, T/C (second compound 0.316 µM, first compound 1 µM): 75.4%
viability, T/C (second compound 0.316 µM, first compound 3.16 µM): 84.7%
viability, T/C (second compound 0.316 µM, first compound 10 µM): 74.4%
viability, T/C [7]: 61.8%
viability, T/C (second compound 1 µM, first compound 0.1 µM): 55.1%
viability, T/C [8]: 85.6%
viability, T/C (second compound 1 µM, first compound 1 µM): 66.9%
viability, T/C (second compound 1 µM, first compound 3.16 µM): 63.5%
viability, T/C (second compound 1 µM, first compound 10 µM): 46.3%
viability, T/C [9]: 51.2%
viability, T/C (second compound 3.16 µM, first compound 0.1 µM): 42.9%
viability, T/C [10]: 39.6%
viability, T/C (second compound 3.16 µM, first compound 1 µM): 28.4%
viability, T/C (second compound 3.16 µM, first compound 3.16 µM): 45%
viability, T/C (second compound 3.16 µM, first compound 10 µM): 0.2%
viability, T/C [11]: 24.2%
viability, T/C (second compound 10 µM, first compound 0.1 µM): 28.3%
viability, T/C [12]: 28.4%
viability, T/C (second compound 10 µM, first compound 1 µM): 37.1%
viability, T/C (second compound 10 µM, first compound 3.16 µM): 29%
viability, T/C (second compound 10 µM, first compound 10 µM): 0.26%
